Source: ChEMBL document CHEMBL3580566, “Identification of 2-[4-[(4-Methoxyphenyl)methoxy]-phenyl]acetonitrile and Derivatives as Potent Oct3/4 Inducers” (2015)
Blank lines part the entries; values can stand above or below the molecule they belong to. Active and inactive are the calls of the source. The rule behind the calls is not given here.

Experiments:
[1] = target: POU domain, class 5, transcription factor 1 (Homo sapiens) (UniProt Q01860); test: Activation of human Oct3/4 in NCCIT cells transfected with firefly luciferase gene assessed as relative luciferase activity after 72 hrs by luminometer plate reader relative to DMSO control; format: cell-based
[2] = target: POU domain, class 5, transcription factor 1 (Homo sapiens) (UniProt Q01860); test: Activation of human Oct3/4 in HEK293 cells transfected with firefly luciferase gene assessed as relative luciferase activity after 72 hrs by luminometer plate reader relative to DMSO control; format: cell-based
Fibroblast [3] = test: Induction of human Klf4 gene expression in human adult primary fibroblasts assessed as increase in mRNA level at 20 uM after 48 hrs by qRT-PCR analysis relative to control; format: functional
Fibroblast [4] = test: Induction of cell cycle arrest in human adult primary fibroblasts assessed as accumulation of cells at S phase at 20 uM after 5 days by propidium iodide staining assay (reference value: 2%); format: functional
NCCIT [5] = test: Induction of Oct3/4 accumulation in human NCCIT cells at 10 uM after 48 hrs by immunolotting analysis; format: functional, cell-based
Fibroblast [6] = test: Induction of cell cycle arrest in human adult primary fibroblasts assessed as accumulation of cells at G1 phase at 20 uM after 5 days by propidium iodide staining assay (reference value: 74%); format: functional
[7] = target: Homeobox protein NANOG (Homo sapiens) (UniProt Q9H9S0); test: Activation of human Nanog in NCCIT cells transfected with firefly luciferase gene assessed as relative luciferase activity up to 72 hrs by luminometer plate reader relative to DMSO control; format: cell-based
Fibroblast [8] = test: Induction of human Nanog protein expression in human adult primary fibroblasts assessed as increase in protein level at 20 uM after 5 days by Hoechst 33258 staining based immunostaining relative to control; format: functional, cell-based
HeLa [9] = test: Induction of Nanog accumulation in human HeLa cells at 10 uM after 48 hrs by immunolotting analysis; format: functional, cell-based
Fibroblast [10] = test: Induction of human Nanog protein expression in human adult primary fibroblasts assessed as increase in protein expression at 20 uM after 72 hrs by immunoblotting analysis relative to control; format: functional, cell-based
Fibroblast [11] = test: Induction of human Oct3/4 and Sox2 protein expression in human adult primary fibroblasts assessed as positive cells normalized to total number of cells; format: functional, cell-based
Fibroblast [12] = test: Induction of human E-Cadherin level in human adult primary fibroblasts assessed as increase in protein level at 20 uM after 72 hrs by FACS analysis relative to control; format: functional, cell-based
Fibroblast [13] = test: Induction of human Lin28 protein expression in human adult primary fibroblasts assessed as increase in protein expression at 20 uM after 72 hrs by immunoblotting analysis relative to control; format: functional, cell-based
Fibroblast [14] = test: Induction of human Oct3/4 gene expression in human adult primary fibroblasts assessed as increase in mRNA level at 20 uM after 48 hrs by qRT-PCR analysis relative to control; format: functional
Fibroblast [15] = test: Induction of human Nanog gene expression in human adult primary fibroblasts assessed as increase in mRNA level at 20 uM after 48 hrs by qRT-PCR analysis relative to control; format: functional
Fibroblast [16] = test: Induction of human c-Myc gene expression in human adult primary fibroblasts assessed as increase in mRNA level at 20 uM after 48 hrs by qRT-PCR analysis relative to control; format: functional
Fibroblast [17] = test: Induction of human Oct3/4 protein expression in human adult primary fibroblasts assessed as increase in protein level at 20 uM after 5 days by Hoechst 33258 staining based immunostaining relative to control; format: functional, cell-based
Fibroblast [18] = test: Induction of human Sox2 protein expression in human adult primary fibroblasts assessed as positive cells normalized to total number of cells; format: functional
Fibroblast [19] = test: Induction of human Sox2 protein expression in human adult primary fibroblasts assessed as increase in protein level at 20 uM after 5 days by Hoechst 33258 staining based immunostaining relative to control; format: functional, cell-based
Fibroblast [20] = test: Induction of human Oct3/4 protein expression in human adult primary fibroblasts assessed as increase in protein expression at 20 uM after 72 hrs by immunoblotting analysis relative to control; format: functional, cell-based
Fibroblast [21] = test: Induction of human KLF4 protein expression in human adult primary fibroblasts assessed as increase in protein level at 20 uM after 5 days by Hoechst 33258 staining based immunostaining relative to control; format: functional, cell-based
[22] = target: POU domain, class 5, transcription factor 1 (Homo sapiens) (UniProt Q01860); test: Activation of human Oct3/4 in human adult primary fibroblasts at 20 uM by immunoblotting analysis relative to control; conditions: TDE = time-dependent effect
Fibroblast [23] = test: Induction of human Sox2 protein expression in human adult primary fibroblasts assessed as increase in protein expression at 20 uM after 72 hrs by immunoblotting analysis relative to control; format: functional, cell-based
HeLa [24] = test: Induction of Oct3/4 accumulation in human HeLa cells at 10 uM after 48 hrs by immunolotting analysis; format: functional, cell-based
Fibroblast [25] = test: Induction of human Oct3/4 protein expression in human adult primary fibroblasts assessed as positive cells normalized to total number of cells; format: functional
Fibroblast [26] = test: Induction of human Rex1 gene expression in human adult primary fibroblasts assessed as increase in mRNA level at 20 uM after 48 hrs by qRT-PCR analysis relative to control; format: functional
NCCIT [27] = test: Induction of Nanog accumulation in human NCCIT cells at 10 uM after 48 hrs by immunolotting analysis; format: functional, cell-based
[28] = target: POU domain, class 5, transcription factor 1 (Homo sapiens) (UniProt Q01860); test: Activation of human Oct3/4 in HEK293 cells transfected with firefly luciferase gene assessed as relative luciferase activity at 5 uM by luminometer plate reader relative to DMSO control; format: cell-based; conditions: TDE = time-dependent effect
HEK293 [29] = test: Induction of human Sox2 protein expression in HEK293 cells assessed as increase in protein expression at 10 uM after 96 hrs by immunoblotting analysis relative to DMSO control; format: functional, cell-based
HEK293 [30] = test: Induction of human Oct3/4 protein expression in HEK293 cells assessed as increase in protein expression at 10 uM after 96 hrs by immunoblotting analysis relative to DMSO control; format: functional, cell-based
[31] = target: POU domain, class 5, transcription factor 1 (Homo sapiens) (UniProt Q01860); test: Activation of human Oct3/4 in HEK293 cells transfected with firefly luciferase gene assessed as relative luciferase activity at 5 uM after 72 hrs by luminometer plate reader relative to DMSO control; format: cell-based
Fibroblast [32] = test: Induction of human Oct3/4 protein expression in human adult primary fibroblasts assessed as increase in protein expression at 10 uM after 72 hrs by immunoblotting analysis relative to control; format: functional, cell-based
HEK293 [33] = test: Induction of human Oct3/4 expression in HEK293 cells transfected with firefly luciferase gene assessed as increase in mRNA level at 10 uM after 72 hrs by qRT-PCT analysis; format: functional
HEK293 [34] = test: Induction of human Oct3/4 expression in HEK293 cells transfected with firefly luciferase gene assessed as increase in mRNA level at 20 uM after 72 hrs by qRT-PCT analysis; format: functional
[35] = target: POU domain, class 5, transcription factor 1 (Homo sapiens) (UniProt Q01860); test: Activation of human Oct3/4 in HEK293 cells transfected with firefly luciferase gene assessed as relative luciferase activity after 48 to 72 hrs by luminometer plate reader relative to DMSO control; format: cell-based
HEK293 [36] = test: Induction of human Oct3/4 protein expression in HEK293 cells assessed as increase in protein expression at 6 uM after 48 hrs by immunoblotting analysis relative to DMSO control; format: functional, cell-based
HEK293 [37] = test: Induction of human Sox2 protein expression in HEK293 cells assessed as increase in protein expression at 0.5 to 20 uM after 48 hrs by immunoblotting analysis relative to DMSO control; format: functional, cell-based
HEK293 [38] = test: Induction of human Oct3/4 protein expression in HEK293 cells assessed as increase in protein expression after 48 hrs by immunoblotting analysis relative to DMSO control; format: functional, cell-based
HFF = test: Induction of human Oct3/4 protein expression in human neonatal foreskin fibroblasts assessed as increase in protein expression at 10 uM after 72 hrs by immunoblotting analysis relative to control; format: functional, cell-based
HEK293 [39] = test: Induction of human Sox2 protein expression in HEK293 cells assessed as increase in protein expression at 10 uM after 48 hrs by immunoblotting analysis relative to DMSO control; format: functional, cell-based
HEK293 [40] = test: Induction of human Oct3/4 protein expression in HEK293 cells assessed as increase in protein expression at 10 uM after 48 hrs by immunoblotting analysis relative to DMSO control; format: functional, cell-based
HEK293 [41] = test: Induction of human Sox2 protein expression in HEK293 cells assessed as increase in protein expression at 10 uM after 24 hrs by immunoblotting analysis relative to DMSO control; format: functional, cell-based
[42] = target: POU domain, class 5, transcription factor 1 (Homo sapiens) (UniProt Q01860); test: Activation of human Oct3/4 in HEK293 cells transfected with firefly luciferase gene assessed as luciferase signal by luminometer plate reader relative to DMSO control; format: cell-based
HEK293 [43] = test: Induction of human Nanog protein expression in HEK293 cells assessed as increase in protein expression at 0.5 to 20 uM after 48 hrs by immunoblotting analysis relative to DMSO control; format: functional, cell-based
HEK293 [44] = test: Induction of human Oct3/4 protein expression in HEK293 cells assessed as increase in protein expression at 10 uM after 24 hrs by immunoblotting analysis relative to DMSO control; format: functional, cell-based
[45] = target: POU domain, class 5, transcription factor 1 (Homo sapiens) (UniProt Q01860); test: Activation of human Oct3/4 in HEK293 cells transfected with firefly luciferase gene assessed as relative luciferase activity at 5 uM after 48 hrs by luminometer plate reader relative to DMSO control; format: cell-based

Chain of POU domain, class 5, transcription factor 1 (Homo sapiens) (Q01860 whole entry, the tested form may be a part): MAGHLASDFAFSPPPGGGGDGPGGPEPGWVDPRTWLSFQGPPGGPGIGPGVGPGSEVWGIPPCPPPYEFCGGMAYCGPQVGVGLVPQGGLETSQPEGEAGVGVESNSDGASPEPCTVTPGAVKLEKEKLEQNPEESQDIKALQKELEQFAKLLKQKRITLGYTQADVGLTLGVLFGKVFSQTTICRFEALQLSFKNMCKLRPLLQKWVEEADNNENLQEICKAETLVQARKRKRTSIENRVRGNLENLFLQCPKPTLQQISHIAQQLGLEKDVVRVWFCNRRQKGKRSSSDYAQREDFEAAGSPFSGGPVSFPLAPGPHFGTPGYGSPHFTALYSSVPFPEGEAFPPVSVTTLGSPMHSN
Chain of Homeobox protein NANOG (Homo sapiens) (Q9H9S0 whole entry): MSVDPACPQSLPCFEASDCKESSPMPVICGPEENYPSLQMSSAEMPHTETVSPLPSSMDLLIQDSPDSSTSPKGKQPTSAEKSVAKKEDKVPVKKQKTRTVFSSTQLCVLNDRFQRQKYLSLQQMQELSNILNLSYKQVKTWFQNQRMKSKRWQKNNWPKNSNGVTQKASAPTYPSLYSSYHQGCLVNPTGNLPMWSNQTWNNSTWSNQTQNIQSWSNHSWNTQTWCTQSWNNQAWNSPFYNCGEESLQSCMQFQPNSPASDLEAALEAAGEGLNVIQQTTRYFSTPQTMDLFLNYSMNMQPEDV

- Activity [7]: Active
- RLU [1]: 4.02
- Activity [22]: tde
- RLU [2]: 6.58
Structure (SMILES): N#CCc1ccc(OCc2ccc(F)cc2)cc1
- fold change (FC) (Fibroblast [3]): 6
- Activity (Fibroblast [4]): 7%
- Activity (NCCIT [5]): Active
- Activity (Fibroblast [6]): 66%
- Activity (Fibroblast [8]): Active
- Activity (HeLa [9]): Active
- Activity (Fibroblast [10]): Active
- Activity (Fibroblast [11]): Active
- Activity (Fibroblast [12]): Active
- Activity (Fibroblast [13]): Active
- fold change (FC) (Fibroblast [14]): 7
- fold change (FC) (Fibroblast [15]): 12
- fold change (FC) (Fibroblast [16]): 2
- Activity (Fibroblast [17]): Active
- Activity (Fibroblast [18]): 9%
- Activity (Fibroblast [19]): Active
- Activity (Fibroblast [20]): Active
- Activity (Fibroblast [21]): Active
- Activity (Fibroblast [23]): Active
- Activity (HeLa [24]): Active
- Activity (Fibroblast [25]): 6%
- fold change (FC) (Fibroblast [26]): 1.3
- Activity (NCCIT [27]): Active

- RLU [1]: 1.88
- RLU [2]: 1.79
Structure (SMILES): N#CCc1ccc(OCc2ccc(C#N)cc2)cc1

- RLU [1]: 2.14
- RLU [2]: 4.9
Structure (SMILES): N#CCc1ccc(OCc2ccc(OC(F)(F)F)cc2)cc1

- RLU [1]: 0.99
- RLU [2]: 3
Structure (SMILES): COc1ccc(COc2ccc(C#N)cc2)cc1

- RLU [1]: 2.26
- RLU [2]: 2
Structure (SMILES): Cc1ccc(COc2ccc(CC#N)cc2)cc1

- Activity [28]: tde
- Activity [7]: Active
- fold change (FC) [31]: 3
- Activity [35]: Dose-dependent effect
- fold change (FC) [42]: 5
- RLU [1]: 2.68
- RLU [2]: 3.85
- fold change (FC) [45]: 2
Structure (SMILES): COc1ccc(COc2ccc(CC#N)cc2)cc1
- Activity (HEK293 [29]): Active
- Activity (HEK293 [30]): Active
- Activity (Fibroblast [32]): Active
- fold change (FC) (HEK293 [33]): 2.5
- fold change (FC) (HEK293 [34]): 4
- Activity (HEK293 [36]): Active
- Activity (HEK293 [37]): Active
- Activity (HEK293 [38]): Dose-dependent effect
- Activity (HFF): Active
- Activity (HEK293 [39]): Active
- Activity (HEK293 [40]): Active
- Activity (HEK293 [41]): Active
- Activity (HEK293 [43]): Active
- Activity (HEK293 [44]): Active

More lines, now with the values behind:

Structure (SMILES): N#Cc1ccc(OCc2ccc([N+](=O)[O-])cc2)cc1
- RLU [1]: 1.08
- RLU [2]: 2.65

Structure (SMILES): N#Cc1ccc(OCc2ccc(OC(F)(F)F)cc2)cc1
- RLU [1]: 1.5
- RLU [2]: 3.4

Structure (SMILES): N#Cc1ccc(OCc2ccc(F)cc2)cc1
- RLU [1]: 2.26
- RLU [2]: 5.83

Structure (SMILES): N#CCc1ccc(OCc2ccc(-c3ccccc3)cc2)cc1
- RLU [1]: 0.73
- RLU [2]: 0.84

Structure (SMILES): N#CCc1ccc(OCc2ccc([N+](=O)[O-])cc2)cc1
- RLU [1]: 2.61
- RLU [2]: 4.02
